Data as given in PubChem BioAssay (NCI).
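Step 1: Grow cells in 96-well plates. Step 2: Expose to compound for 48 hours at 5 concentrations. Step 3: Interpolate endpoints linearly; if unreached, use highest concentration. TGI: concentration producing complete growth inhibition.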

Legend:
Assay in all cases: NCI-60 cell line screen, 48 h
[1] = test system: SF-539 CNS
[2] = test system: U251 CNS
[3] = test system: 786-0 renal
[4] = test system: SF-268 CNS
[5] = test system: UACC-257 melanoma
[6] = test system: OVCAR-4 ovarian
[7] = test system: COLO 205 colon
[8] = test system: HCT-15 colon
[9] = test system: HCC-2998 colon
[10] = test system: MCF7 breast
[11] = test system: K-562 leukemia
[12] = test system: RPMI-8226 leukemia
[13] = test system: NCI/ADR-RES ovarian
[14] = test system: CCRF-CEM leukemia
[15] = test system: ACHN renal

| SMILES | TGI [1] [µM] | TGI [2] [µM] | TGI [3] [µM] | TGI [4] [µM] | TGI [5] [µM] | TGI [6] [µM] | TGI [7] [µM] | TGI [8] [µM] | TGI [9] [µM] | TGI [10] [µM] | TGI [11] [µM] | TGI [12] [µM] | TGI [13] [µM] | TGI [14] [µM] | TGI [15] [µM] |
| --- | --- | --- | --- | --- | --- | --- | --- | --- | --- | --- | --- | --- | --- | --- | --- |
| O=C(O)CO[C@@]12C#C/C=C\C#C[C@@H]3N(C(=O)Oc4ccccc4)c4ccccc4[C@]14O[C@@]34CCC2 | > 100 | 54.8 | > 100 | 85.2 | > 100 | > 100 | 46.8 | 31.2 | 28.7 | 46.7 | 92.9 | > 100 | > 100 | > 100 | > 100 |
| O=C(/C=C/c1ccc(O)c(O)c1)OCC(OC(=O)/C=C/c1ccc(O)c(O)c1)C(=O)O (stereo unspecified) | > 100 | > 100 | > 100 | > 100 | > 100 | > 100 | > 100 | > 100 | > 100 | > 100 | > 100 | > 100 | > 100 | > 100 | > 100 |
| CCOC(=O)c1sc(=S)n(-c2ccc(Cl)cc2)c1-n1cc(-c2ccccc2)c(C#N)c1N | 50.6 | 32.7 | 22.9 | 8.6 | > 100 | 22.7 | > 100 | > 100 | > 100 | > 100 | > 100 | > 100 | 47.1 | > 100 | 40.9 |
| Cc1ccc(-n2[nH]nc(C(N)=O)c2=O)cc1 | – | > 100 | > 100 | > 100 | > 100 | > 100 | > 100 | > 100 | > 100 | > 100 | > 100 | > 100 | > 100 | > 100 | > 100 |
| CC(C)NC(=O)OCc1c2c(n(C)c1COC(=O)NC(C)C)-c1cc(Cl)c(Cl)cc1CC2 | > 100 | 40.6 | > 100 | > 100 | 86.8 | > 100 | 73.6 | > 100 | 32.7 | 45.2 | 41.6 | 64.8 | > 100 | 65.6 | > 100 |
| Cc1cc(C)c2c(=O)cc(-c3cccc4ccccc34)[nH]c2n1 | > 19.9 | 23.8 | > 100 | > 48 | – | > 100 | 2.03 | 14.3 | 7.37 | > 100 | > 100 | 29 | > 25.9 | > 100 | > 100 |
| O=C(NC1=C(Cl)C(=O)c2ccccc2C1=O)c1ccccc1 | > 100 | 81.1 | > 100 | > 100 | – | > 100 | 30 | 62.6 | > 100 | 39.2 | 54.3 | > 100 | 39.1 | > 100 | 40 |
| CCCCCCNCCc1cnc[nH]1 | > 100 | > 100 | > 100 | > 100 | > 100 | > 100 | > 100 | > 100 | > 100 | > 100 | > 100 | > 100 | > 100 | > 100 | > 100 |
| C[C@@H](C(=O)O)N1C(c2ccco2)=C(/C(C=O)=C\c2ccco2)C(=O)/C1=C\c1ccco1 | > 100 | > 100 | > 100 | > 100 | > 100 | > 100 | > 100 | > 100 | – | > 100 | > 100 | > 100 | > 100 | > 100 | > 100 |
| OC(CC1CCCCN1)c1ccc2c(c1)oc1ccccc12 (stereo unspecified) | > 100 | > 100 | > 100 | > 100 | > 100 | > 100 | 45.2 | > 100 | > 100 | > 100 | > 100 | > 100 | > 100 | > 100 | > 100 |
| C=CCn1c(N)c(C#N)c(C#N)c1CCC | > 100 | > 100 | > 100 | > 100 | > 100 | > 100 | > 100 | > 100 | > 100 | > 100 | > 100 | > 100 | > 100 | > 100 | > 100 |
| C/C(=N\NS(=O)(=O)c1ccc(C)cc1)c1ccccn1 | > 100 | > 100 | > 100 | > 100 | > 100 | > 100 | 93.5 | > 100 | > 100 | > 100 | > 100 | > 100 | > 100 | 78.9 | 83.3 |
| COc1cc2c(cc1OCCCCCCCCCCN1C(=O)c3cccc4cccc(c34)C1=O)N=C[C@@H]1CCCN1C2=O | 3.21 | 13.4 | 55.9 | 37.3 | 37.3 | 6.11 | 15.9 | 16.9 | 27.5 | 9.26 | 74.7 | 4 | 14.4 | – | 30 |
| Cc1ccc(C(=O)N/N=C(\N=Nc2cccc([N+](=O)[O-])c2)c2ccc(N(CCC#N)CCC#N)cc2C)cc1 | 58.7 | > 100 | > 100 | > 100 | 52.7 | > 100 | 20.9 | > 100 | > 100 | > 68.1 | > 100 | > 100 | > 95.4 | > 69.2 | > 100 |
| COc1ccc(/C=C2\N=C(N3CCCCC3)NC2=O)cc1 | > 100 | > 100 | > 100 | > 100 | > 100 | > 100 | > 100 | > 100 | > 100 | > 100 | – | > 100 | > 100 | > 100 | > 100 |
| CC1(C)N/C(=C\[N+](=O)[O-])C(C)(C)N1O | > 10 | > 10 | > 10 | > 10 | > 10 | > 10 | > 10 | > 10 | > 10 | > 10 | – | > 10 | > 10 | > 10 | > 10 |

| SMILES | TGI [1] [µM] | TGI [2] [µM] | TGI [3] [µM] | TGI [4] [µM] | TGI [5] [µM] | TGI [6] [µM] | TGI [7] [µM] | TGI [8] [µM] | TGI [9] [µM] | TGI [10] [µM] | TGI [11] [µM] | TGI [12] [µM] | TGI [13] [µM] | TGI [14] [µM] | TGI [15] [µM] |
| --- | --- | --- | --- | --- | --- | --- | --- | --- | --- | --- | --- | --- | --- | --- | --- |
| COC(=O)C1=C(OC(=O)/C(=C/c2ccccc2)c2ccc(Cl)cc2Cl)C(C(=O)OC)[C@@]2(O)[C@@H](C(=O)OC)[C@H](C)C[C@@H]1[C@@H]2C(=O)OC (stereo partly specified) | > 100 | > 100 | > 100 | > 100 | > 100 | > 100 | > 100 | > 100 | > 100 | > 100 | > 100 | > 100 | > 100 | > 100 | > 100 |
| CSc1c(C(=O)Nc2ccccc2)c(N)n(N)c(=O)c1C#N | > 100 | > 100 | > 100 | > 100 | > 100 | > 100 | > 100 | > 100 | > 100 | > 100 | > 100 | > 100 | > 100 | > 100 | – |
| C=C(CCOC)CCC1CCCCC(CN(C)C)C1=O (stereo unspecified) | – | > 100 | > 100 | > 100 | – | > 100 | > 100 | > 100 | > 100 | > 100 | > 100 | > 100 | > 100 | > 100 | > 100 |
| Clc1ccc(CCN(CCc2ccc(Cl)c(Cl)c2)CCN2CCCC2)cc1Cl | 3.18 | 2.95 | 3.14 | 3.73 | 3.37 | 3.66 | 3.48 | 3.28 | 3.19 | 2.88 | – | 5.38 | 3.39 | 2.73 | 3.2 |
| COC1(OC)N=C(N)C2(C#N)C(c3ccccc3)NC3=C(CCC3)C12C#N (stereo unspecified) | – | > 100 | > 100 | > 100 | > 100 | > 100 | > 100 | > 100 | > 100 | > 100 | – | > 100 | > 100 | > 100 | > 100 |
| S=C(N/N=C/c1ccccn1)N1CCCCC1 | 0.749 | > 43.1 | 7.08 | – | 0.188 | > 24.1 | > 100 | 28.3 | > 100 | 50 | 45.6 | 1.68 | < 0.0382 | – | 3.44 |
| Cc1ccc(C2(O)CSC(=NC34CC5CC(CC(C5)C3)C4)N2C(P(=O)(O)O)P(=O)(O)O)cc1 (stereo unspecified) | > 100 | > 100 | > 100 | > 100 | – | > 100 | > 100 | > 100 | > 100 | > 100 | > 100 | > 100 | 68.3 | – | > 100 |
| COc1ccc2c(c1)CN1C(=N2)CSC1c1cccc(Br)c1 (stereo unspecified) | > 100 | > 100 | 42.8 | > 100 | > 100 | > 100 | > 100 | > 100 | 57.8 | > 100 | > 100 | 35.2 | > 100 | – | > 100 |
| ONC1=Nc2cc(Cl)ccc2C(=S)N2CSCC12 (stereo unspecified) | – | > 100 | > 100 | > 100 | > 100 | > 100 | > 100 | > 100 | > 100 | > 100 | > 100 | > 100 | > 100 | > 100 | > 100 |
| C=CC[C@]1(/C=N/O)CN(S(=O)(=O)CC[Si](C)(C)C)C[C@H]2CC=CC[C@H]21 | 32.8 | 32.2 | 32.5 | > 100 | 60.6 | 34.1 | 32.6 | > 100 | 31.9 | 39.6 | 67.5 | 31.8 | > 100 | 40.7 | – |
| O=[N+]([O-])c1ccc(CSc2nncc3[nH]cnc23)cc1 | > 100 | > 100 | > 100 | – | > 100 | > 100 | > 100 | > 100 | > 100 | > 100 | > 100 | > 100 | > 100 | > 100 | > 100 |
| CC(C)(C)C1CCC(=O)/C(=C/CC2CC(=O)N(c3ccccc3)C(=O)C2)C1 (stereo unspecified) | – | 31 | 38.3 | 47.1 | 28.2 | 77.4 | 41.2 | 33.2 | 43.5 | 49.5 | 48.3 | 49.1 | 37.7 | – | 42.9 |
| O=C1NC(=S)N/C1=C\c1cccs1 | > 100 | > 100 | > 100 | > 100 | – | > 100 | > 100 | > 100 | > 100 | > 100 | > 100 | > 100 | > 100 | > 100 | – |
| N[C@@H]1CCN(c2c(F)cc3c(=O)c(C(=O)O)cn4c3c2Oc2c-4ccc3c2ccc2ccccc23)C1 | > 100 | 10.5 | 39.6 | > 100 | > 100 | – | > 100 | > 100 | 3.56 | 3.34 | > 100 | 36.3 | > 100 | – | 4.25 |
| Cc1c(-c2ccccc2)cc(O)c2nc3ccccc3n12 | > 100 | > 100 | > 100 | – | > 100 | > 100 | > 100 | > 100 | > 100 | > 100 | > 100 | > 100 | > 100 | > 100 | > 100 |
| CC(C)CCNC(=O)c1ccc(CNC(=O)/C=C/c2cccc(Oc3ccccc3)c2)cc1 | > 100 | > 100 | 69.3 | > 100 | > 100 | > 100 | > 100 | > 100 | > 100 | > 100 | > 100 | > 100 | > 100 | – | > 100 |
